Results on one molecule are retold here after article PMC5803236 (Scientific Reports, 2018).

Each structure is given as a SMILES string.

Experiment [1] has as its target T1, hemagglutinin (HA) of H1N1 A/Puerto Rico/8/1934 (Influenza A virus (A/Puerto Rico/8/1934(H1N1)), UniProt P03452).
T1 construct: native HA on whole virus (virus antigen, 4 HAU); not purified protein
The format is cell-based.

Experiment [2] addresses hemagglutinin (HA) of H1N1 A/Korea/01/2009 (Pandemic) (Influenza A virus (A/Korea/01/2009(H1N1)), UniProt C5MQE6).

As for `CC(=O)N[C@H]1[C@H]([C@H](O)[C@H](O)CO)O[C@@](OC[C@H]2O[C@@H](O[C@H]3[C@H](O)[C@@H](O)C(O)O[C@@H]3CO)[C@H](O)[C@@H](O)[C@H]2O)(C(=O)O)C[C@@H]1O` (some centres unmarked) [6′-sialyllactose], the MIC in experiment [1] and in experiment [2] was over 200 mM in each case.
